From patent US6900200B2, “Tricyclic hydroxy carboxamides and derivatives thereof tocolytic oxytocin receptor antagonists” (Wyeth, priority 2001, dated 2005) come the findings set out here.

In the case of `COc1cc(C(=O)N2Cc3ccc(C(=O)N(C)C[C@H](O)[C@@H](O)[C@@H](O)[C@H](O)CO)n3Cc3ccccc32)ccc1-c1ccccc1C(F)(F)F` [Example 23, 10-{[2-Methoxy-2′-trifluoromethyl-[1,1′-biphenyl]-4-yl]carbonyl}-N-methyl-N-[(2R,3S,4R,5S)-2,3,4,5,6-pentahydroxyhexyl]-10,11-dihydro-5H-pyrrolo[2,1-c][1,4]benzodiazepine-3-carboxamide], the melting point is 132 to 140 °C (dec.).
